The record followed here is PubChem BioAssay AID1259407 (Chemical Carcinogenesis Research Information System (CCRIS), 2018).

The data set deals with CCRIS mutagenicity, Ames/micronucleus/aberration tests. The data set is described as follows: CCRIS mutagenicity studies.
Where [1] appears, read: Test System: AMES SALMONELLA TYPHIMURIUM, Strain/Indicator: TA98, Metabolic Activation: NONE, Method: STANDARD PLATE.
[2] abbreviates: Test System: AMES SALMONELLA TYPHIMURIUM, Strain/Indicator: TA98, Metabolic Activation: RAT, LIVER, S-9, AROCLOR 1254, Method: STANDARD PLATE.
The mark [3] stands for this setting: Test System: AMES SALMONELLA TYPHIMURIUM, Strain/Indicator: TA98, Metabolic Activation: NONE, Method: PREINCUBATION

The structures appear in SMILES notation. Activity calls are given as the source filed them. No rule for the calls is given here.

For the molecule `[Cl][Cd][Cl]`, the mutagenic call is “active; positive” (End Point: IN VITRO MICRONUCLEUS, Test System: CHL/IU CELLS, Metabolic Activation: NONE); “active; positive” (End Point: IN VITRO MICRONUCLEUS, Test System: HAMSTER V79 CELLS, Metabolic Activation: NONE); “active; positive” (End Point: IN VITRO MICRONUCLEUS, Test System: HUMAN PERIPHERAL LYMPHOCYTES, Metabolic Activation: NONE, Method: FISH (CENTROMERIC SIGNAL CONTENT)); “inactive; negative” (Test System: AMES SALMONELLA TYPHIMURIUM, Strain/Indicator: TA97, Metabolic Activation: NONE, Method: STANDARD PLATE); “inactive; negative” (Test System: AMES SALMONELLA TYPHIMURIUM, Strain/Indicator: TA97, Metabolic Activation: RAT, LIVER, S-9, AROCLOR 1254, Method: STANDARD PLATE); “inactive; negative” under setting [1]. For the same molecule, the mutagenic call reads like this: under setting [2], “inactive; negative”; (Test System: AMES SALMONELLA TYPHIMURIUM, Strain/Indicator: TA98, Metabolic Activation: S-9, Method: STANDARD PLATE) “inactive; negative”; (Test System: AMES SALMONELLA TYPHIMURIUM, Strain/Indicator: TA100, Metabolic Activation: NONE, Method: STANDARD PLATE) “inactive; negative”; (Test System: AMES SALMONELLA TYPHIMURIUM, Strain/Indicator: TA100, Metabolic Activation: RAT, LIVER, S-9, AROCLOR 1254, Method: STANDARD PLATE) “inactive; negative”; (Test System: AMES SALMONELLA TYPHIMURIUM, Strain/Indicator: TA1535, Metabolic Activation: NONE, Method: STANDARD PLATE) “inactive; negative”; (Test System: AMES SALMONELLA TYPHIMURIUM, Strain/Indicator: TA1535, Metabolic Activation: S-9, Method: STANDARD PLATE) “inactive; negative”. The mutagenic call (Test System: CHINESE HAMSTER V-79, Strain/Indicator: SP5 V-79 (HPRT)/6-THIOGUANINE, Metabolic Activation: NONE, Method: STANDARD PLATE) is “inactive; negative”; the mutagenic call (Test System: CHINESE HAMSTER V-79, Strain/Indicator: SPD8 V-79 (HPRT)/6-THIOGUANINE, Metabolic Activation: NONE, Method: STANDARD PLATE) was “active; positive”; the mutagenic call (Test System: CHINESE HAMSTER V-79 CELLS, Strain/Indicator: V-79 CELLS (HPRT)/6-THIOGUANINE, Metabolic Activation: NONE, Method: PREINCUBATION) is “inactive; negative”; the mutagenic call (Test System: Chinese hamster lung cells, Strain/Indicator: V-79/HPRT/6-Thioguanidine, Metabolic Activation: None, Method: Standard Plate) is “active; positive”; the mutagenic call (Test System: E. COLI, Strain/Indicator: WP2 UVRA, Metabolic Activation: NONE, Method: SPOT TEST) is “active; positive”; the mutagenic call (Test System: E. COLI, Strain/Indicator: WP2 UVRA, Metabolic Activation: NONE, Method: STANDARD PLATE) was “active; positive”. In addition, the mutagenic call is “active; positive” (Test System: Rat lymphocytes, Strain/Indicator: Kumin/Male/HPRT/6-Thioguanidine, Metabolic Activation: None, Method: Intraperitoneal injection, blood collection 1, 6, and 12 d later); “inactive; negative” (Test System: UDS HAMSTER TRACHEAL EPITHELIAL CELLS, Strain/Indicator: THY INCORP (NON-S-PHASE), Metabolic Activation: NONE, Method: AUTORADIOGRAPHY); “active; positive” (Test System: UDS RAT TRACHEAL EPITHELIAL CELLS, Strain/Indicator: THY INCORP (NON-S-PHASE), Metabolic Activation: NONE, Method: AUTORADIOGRAPHY).

Turning to `Nc1cc([N+](=O)[O-])c(-c2ccccc2)c([N+](=O)[O-])c1`, the mutagenic call runs as follows: under setting [3], “inactive; negative”; (Test System: AMES SALMONELLA TYPHIMURIUM, Strain/Indicator: TA98, Metabolic Activation: RAT, LIVER, S-9, KANECHLOR 500, Method: PREINCUBATION) “active; positive”.

Take `C=C1C[C@@]23CC[C@H]4[C@@](C)(CCC[C@@]4(C)C(=O)O)[C@@H]2CC[C@]1(O[C@@H]1O[C@H](CO)[C@@H](O)[C@H](O)[C@H]1O[C@@H]1O[C@H](CO)[C@@H](O)[C@H](O)[C@H]1O)C3`: the mutagenic call (Test System: AMES SALMONELLA TYPHIMURIUM, Strain/Indicator: TM677, Metabolic Activation: RAT, LIVER, S-9, AROCLOR 1254, Method: PREINCUBATION) is “inactive; negative”.

For the molecule `CC1CC(C)C(=O)C1=O` (stereo unspecified), the mutagenic call reads like this: under setting [3], “inactive; negative”; (Test System: AMES SALMONELLA TYPHIMURIUM, Strain/Indicator: TA98, Metabolic Activation: S-9, Method: PREINCUBATION) “inactive; negative”; (Test System: AMES SALMONELLA TYPHIMURIUM, Strain/Indicator: TA100, Metabolic Activation: NONE, Method: PREINCUBATION) “inactive; negative”; (Test System: AMES SALMONELLA TYPHIMURIUM, Strain/Indicator: TA100, Metabolic Activation: S-9, Method: PREINCUBATION) “inactive; negative”; (Test System: AMES SALMONELLA TYPHIMURIUM, Strain/Indicator: TA1535, Metabolic Activation: NONE, Method: PREINCUBATION) “inactive; negative”; (Test System: AMES SALMONELLA TYPHIMURIUM, Strain/Indicator: TA1535, Metabolic Activation: S-9, Method: PREINCUBATION) “inactive; negative”. The mutagenic call (Test System: AMES SALMONELLA TYPHIMURIUM, Strain/Indicator: TA1537, Metabolic Activation: NONE, Method: PREINCUBATION) is “inactive; negative”; the mutagenic call (Test System: AMES SALMONELLA TYPHIMURIUM, Strain/Indicator: TA1537, Metabolic Activation: S-9, Method: PREINCUBATION) was “inactive; negative”; the mutagenic call (Test System: E.COLI, Strain/Indicator: WP2 UVRA, Metabolic Activation: NONE, Method: PREINCUBATION) is “inactive; negative”; the mutagenic call (Test System: E.COLI, Strain/Indicator: WP2 UVRA, Metabolic Activation: S-9, Method: PREINCUBATION) is “inactive; negative”.

Consider `O=[N+]([O-])c1cc([N+](=O)[O-])c2c3c(c4cccc5ccc1c2c54)CCCC3`, for which the mutagenic call was “active; positive” under setting [1] and “active; positive” under setting [2].
